Source: patent US7851474B2, “Dipiperazinyl ketones and related analogues” (Neurogen Corporation, priority 2005, dated 2010)

Molecular target: T1, chimeric human H3 receptor (Homo sapiens, UniProt Q9Y5N1, E19D)
T1 construct: made in house; host or cells: Sf9 insect cells (baculovirus infection); P2 membrane preparation
Experiment: Chimeric human H3 receptor screening GTP binding assay (inhibition of histamine-stimulated GTP-gamma35S binding, Example 8)
Type: biochemical
Details: 1 h; assay described in Example 8; symbol + in column headed Ki of Table II; read-out: percent inhibition of agonist-induced GTP-gammaS binding to H3
Description: This Example illustrates a representative screening assay for evaluating inhibition of histamine-stimulated GTP-gamma^35S binding. Such GTP binding activity can be used to identify H3 antagonists and inverse agonists. A compound analyzed in this assay is referred to herein as a “test compound,” and the initial identification of antagonists and inverse agonists is performed using a test compound concentration of 4 μM.
Four independent baculoviral stocks (one directing the expression of the chimeric human H3 receptor and three directing the expression of each of the three subunits of a heterotrimeric G-protein) are used to infect a culture of Sf9 cells as described above. P2 membranes are prepared as described above, and are resuspended by Dounce homogenization (tight pestle) in GTP binding assay buffer (50 mM Tris pH 7.4, 120 mM NaCl, 5 mM MgCl2, 2 mM EGTA, 1 mg/ml BSA, 0.2 mg/ml bacitracin, 0.02 mg/ml aprotinin, 0.01 mg/ml saponin, 10 μM GDP) and added to assay tubes at a concentration of 35 μg protein/reaction tube. Non-radiolabeled test compounds are added to separate reactions at a concentration of 4 μM along with 1 μM histamine (agonist). Reactions are initiated by the addition of 125 pM GTP-gamma^35S with a final assay volume of 0.20 ml.
After a 60-min incubation at room temperature, reactions are terminated by vacuum filtration over GF/C filters (pre-soaked in 50 mM Tris pH 7.4, 120 mM NaCl plus 0.1% BSA) followed by washing with ice-cold buffer (50 mM Tris pH 7.4, 120 mM NaCl). The amount of receptor-bound (and thereby membrane-bound) GTP-gamma^35S is determined by measuring the bound radioactivity, preferably by liquid scintillation spectrometry of the washed filters. Non-specific binding is determined using 10 uM GTP-gammaS and typically represents less than 5 percent of total binding. After subtraction of non-specific binding, data is expressed as percent inhibition of 1 μM histamine signal.
Neutral antagonists are those test compounds that reduce the histamine-stimulated GTP binding activity towards, but not below, baseline levels. In contrast, in the absence of added histamine, inverse agonists reduce the GTP binding activity of the receptor-containing membranes below baseline. Any test compound that elevates GTP binding activity above baseline in the absence of added histamine in this assay is defined as having agonist activity.

T1 sequence (Q9Y5N1 with tags, fused parts or gaps E19D): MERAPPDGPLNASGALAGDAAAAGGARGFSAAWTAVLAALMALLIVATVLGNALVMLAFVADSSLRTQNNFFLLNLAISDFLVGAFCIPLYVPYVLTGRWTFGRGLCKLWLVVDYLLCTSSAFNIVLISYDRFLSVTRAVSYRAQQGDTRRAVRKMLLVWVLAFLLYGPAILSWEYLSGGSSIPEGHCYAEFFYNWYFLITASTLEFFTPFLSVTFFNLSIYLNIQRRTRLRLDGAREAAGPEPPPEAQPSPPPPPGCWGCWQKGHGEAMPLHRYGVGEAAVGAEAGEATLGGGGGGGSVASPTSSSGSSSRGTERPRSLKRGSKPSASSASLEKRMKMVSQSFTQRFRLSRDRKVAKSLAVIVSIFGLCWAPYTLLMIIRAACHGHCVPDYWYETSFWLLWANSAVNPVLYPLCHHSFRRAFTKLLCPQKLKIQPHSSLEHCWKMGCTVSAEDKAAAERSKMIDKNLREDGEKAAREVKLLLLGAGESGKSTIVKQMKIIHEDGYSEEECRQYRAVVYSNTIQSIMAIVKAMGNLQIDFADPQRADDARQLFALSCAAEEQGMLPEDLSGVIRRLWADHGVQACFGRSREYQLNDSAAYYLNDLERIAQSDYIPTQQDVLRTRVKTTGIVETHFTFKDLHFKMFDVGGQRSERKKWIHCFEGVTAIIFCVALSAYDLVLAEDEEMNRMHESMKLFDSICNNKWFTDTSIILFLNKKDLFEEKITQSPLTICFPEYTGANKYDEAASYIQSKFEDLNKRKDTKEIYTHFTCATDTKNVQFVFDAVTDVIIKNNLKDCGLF

SMILES	inhibition at 4 µM [%]
O=C(CN1CCN(C(=O)c2cc3ccccc3s2)CC1)N1CCN(C2CCC2)CC1 [Compound 261, 1-(1-benzothien-2-ylcarbonyl)-4-[2-(4-cyclobutylpiperazin-1-yl)-2-oxoethyl]piperazine]	> 90
O=C(CN1CCN(C(=O)c2ccccc2Cc2ccccc2)CC1)N1CCN(C2CCC2)CC1 [Compound 270, 1-(2-benzylbenzoyl)-4-[2-(4-cyclobutylpiperazin-1-yl)-2-oxoethyl]piperazine]	> 90
COc1ccc(Br)c(C(=O)N2CCN(CC(=O)N3CCN(C4CCC4)CC3)CC2)c1 [Compound 271, 1-(2-bromo-5-methoxybenzoyl)-4-[2-(4-cyclobutylpiperazin-1-yl)-2-oxoethyl]piperazine]	> 90
CCCCOc1ccccc1C(=O)N1CCN(CC(=O)N2CCN(C3CCC3)CC2)CC1 [Compound 272, 1-(2-butoxybenzoyl)-4-[2-(4-cyclobutylpiperazin-1-yl)-2-oxoethyl]piperazine]	> 90
O=C(CN1CCN(C(=O)c2c(F)cccc2Cl)CC1)N1CCN(C2CCC2)CC1 [Compound 274, 1-(2-chloro-6-fluorobenzoyl)-4-[2-(4-cyclobutylpiperazin-1-yl)-2-oxoethyl]piperazine]	> 90
COc1cc(C(=O)N2CCN(CC(=O)N3CCN(C4CCC4)CC3)CC2)cc(Cl)n1 [Compound 275, 1-(2-chloro-6-methoxyisonicotinoyl)-4-[2-(4-cyclobutylpiperazin-1-yl)-2-oxoethyl]piperazine]	> 90
Cc1cc(C(=O)N2CCN(CC(=O)N3CCN(C4CCC4)CC3)CC2)cc(Cl)n1 [Compound 276, 1-(2-chloro-6-methylisonicotinoyl)-4-[2-(4-cyclobutylpiperazin-1-yl)-2-oxoethyl]piperazine]	> 90
O=C(CN1CCN(C(=O)c2ccccc2Cl)CC1)N1CCN(C2CCC2)CC1 [Compound 277, 1-(2-chlorobenzoyl)-4-[2-(4-cyclobutylpiperazin-1-yl)-2-oxoethyl]piperazine]	> 90
O=C(CN1CCN(C(=O)c2ccnc(Cl)c2)CC1)N1CCN(C2CCC2)CC1 [Compound 279, 1-(2-chloroisonicotinoyl)-4-[2-(4-cyclobutylpiperazin-1-yl)-2-oxoethyl]piperazine]	> 90
COc1ccc(Br)c(OC)c1C(=O)N1CCN(CC(=O)N2CCN(C3CCC3)CC2)CC1 [Compound 290, 1-(3-bromo-2,6-dimethoxybenzoyl)-4-[2-(4-cyclobutylpiperazin-1-yl)-2-oxoethyl]piperazine]	> 90
O=C(CN1CCN(C(=O)c2ccc(F)c(Br)c2)CC1)N1CCN(C2CCC2)CC1 [Compound 291, 1-(3-bromo-4-fluorobenzoyl)-4-[2-(4-cyclobutylpiperazin-1-yl)-2-oxoethyl]piperazine]	> 90
Cc1ccc(C(=O)N2CCN(CC(=O)N3CCN(C4CCC4)CC3)CC2)cc1Br [Compound 292, 1-(3-bromo-4-methylbenzoyl)-4-[2-(4-cyclobutylpiperazin-1-yl)-2-oxoethyl]piperazine]	> 90
COc1ccc(Cl)c(OC)c1C(=O)N1CCN(CC(=O)N2CCN(C3CCC3)CC2)CC1 [Compound 294, 1-(3-chloro-2,6-dimethoxybenzoyl)-4-[2-(4-cyclobutylpiperazin-1-yl)-2-oxoethyl]piperazine]	> 90
O=C(CN1CCN(C(=O)c2ccc(F)c(Cl)c2)CC1)N1CCN(C2CCC2)CC1 [Compound 296, 1-(3-chloro-4-fluorobenzoyl)-4-[2-(4-cyclobutylpiperazin-1-yl)-2-oxoethyl]piperazine]	> 90
Cc1ccc(C(=O)N2CCN(CC(=O)N3CCN(C4CCC4)CC3)CC2)cc1Cl [Compound 298, 1-(3-chloro-4-methylbenzoyl)-4-[2-(4-cyclobutylpiperazin-1-yl)-2-oxoethyl]piperazine]	> 90
O=C(CN1CCN(C(=O)c2cccc(Cl)c2)CC1)N1CCN(C2CCC2)CC1 [Compound 299, 1-(3-chlorobenzoyl)-4-[2-(4-cyclobutylpiperazin-1-yl)-2-oxoethyl]piperazine]	> 90

SMILES	inhibition at 4 µM [%]
CCCCOc1ccc(C(=O)N2CCN(CC(=O)N3CCN(C4CCC4)CC3)CC2)cc1 [Compound 340, 1-(4-butoxybenzoyl)-4-[2-(4-cyclobutylpiperazin-1-yl)-2-oxoethyl]piperazine]	> 90
COc1cc(Cl)ccc1C(=O)N1CCN(CC(=O)N2CCN(C3CCC3)CC2)CC1 [Compound 342, 1-(4-chloro-2-methoxybenzoyl)-4-[2-(4-cyclobutylpiperazin-1-yl)-2-oxoethyl]piperazine]	> 90
Cc1cc(C(=O)N2CCN(CC(=O)N3CCN(C4CCC4)CC3)CC2)ccc1Cl [Compound 348, 1-(4-chloro-3-methylbenzoyl)-4-[2-(4-cyclobutylpiperazin-1-yl)-2-oxoethyl]piperazine]	> 90
O=C(CN1CCN(C(=O)c2ccc(Cl)cc2)CC1)N1CCN(C2CCC2)CC1 [Compound 354, 1-(4-chlorobenzoyl)-4-[2-(4-cyclobutylpiperazin-1-yl)-2-oxoethyl]piperazine]	> 90
COc1ccc(Cl)cc1C(=O)N1CCN(CC(=O)N2CCN(C3CCC3)CC2)CC1 [Compound 364, 1-(5-chloro-2-methoxybenzoyl)-4-[2-(4-cyclobutylpiperazin-1-yl)-2-oxoethyl]piperazine]	> 90
O=C(CN1CCN(C(=O)c2ccccc2-c2ccccc2)CC1)N1CCN(C2CCC2)CC1 [Compound 374, 1-(biphenyl-2-ylcarbonyl)-4-[2-(4-cyclobutylpiperazin-1-yl)-2-oxoethyl]piperazine]	> 90
O=C(Cc1ccc(-c2ccccc2)cc1)N1CCN(CC(=O)N2CCN(C3CCC3)CC2)CC1 [Compound 375, 1-(biphenyl-4-ylacetyl)-4-[2-(4-cyclobutylpiperazin-1-yl)-2-oxoethyl]piperazine]	> 90
O=C(CN1CCN(C(=O)c2ccc(-c3ccccc3)cc2)CC1)N1CCN(C2CCC2)CC1 [Compound 376, 1-(biphenyl-4-ylcarbonyl)-4-[2-(4-cyclobutylpiperazin-1-yl)-2-oxoethyl]piperazine]	> 90
Cc1cc(C(=O)N2CCN(CC(=O)N3CCN(C4CCC4)CC3)CC2)n(C(C)(C)C)n1 [Compound 377, 1-[(1-tert-butyl-3-methyl-1H-pyrazol-5-yl)carbonyl]-4-[2-(4-cyclobutylpiperazin-1-yl)-2-oxoethyl]piperazine]	> 90
O=C(Cc1ccc(F)cc1Cl)N1CCN(CC(=O)N2CCN(C3CCC3)CC2)CC1 [Compound 381, 1-[(2-chloro-4-fluorophenyl)acetyl]-4-[2-(4-cyclobutylpiperazin-1-yl)-2-oxoethyl]piperazine]	> 90
O=C(COc1ccccc1Cl)N1CCN(CC(=O)N2CCN(C3CCC3)CC2)CC1 [Compound 383, 1-[(2-chlorophenoxy)acetyl]-4-[2-(4-cyclobutylpiperazin-1-yl)-2-oxoethyl]piperazine]	> 90
O=C(Cc1ccccc1Cl)N1CCN(CC(=O)N2CCN(C3CCC3)CC2)CC1 [Compound 384, 1-[(2-chlorophenyl)acetyl]-4-[2-(4-cyclobutylpiperazin-1-yl)-2-oxoethyl]piperazine]	> 90
O=C(/C=C/c1ccc2c(c1)OCO2)N1CCN(CC(=O)N2CCN(C3CCC3)CC2)CC1 [Compound 385, 1-[(2E)-3-(1,3-benzodioxol-5-yl)prop-2-enoyl]-4-[2-(4-cyclobutylpiperazin-1-yl)-2-oxoethyl]piperazine]	> 90
COc1cc(Br)c(/C=C/C(=O)N2CCN(CC(=O)N3CCN(C4CCC4)CC3)CC2)cc1OC [Compound 386, 1-[(2E)-3-(2-bromo-4,5-dimethoxyphenyl)prop-2-enoyl]-4-[2-(4-cyclobutylpiperazin-1-yl)-2-oxoethyl]piperazine]	> 90
COc1ccc(/C=C/C(=O)N2CCN(CC(=O)N3CCN(C4CCC4)CC3)CC2)c(Cl)c1OC [Compound 387, 1-[(2E)-3-(2-chloro-3,4-dimethoxyphenyl)prop-2-enoyl]-4-[2-(4-cyclobutylpiperazin-1-yl)-2-oxoethyl]piperazine]	> 90
O=C(/C=C/c1c(F)cccc1Cl)N1CCN(CC(=O)N2CCN(C3CCC3)CC2)CC1 [Compound 388, 1-[(2E)-3-(2-chloro-6-fluorophenyl)prop-2-enoyl]-4-[2-(4-cyclobutylpiperazin-1-yl)-2-oxoethyl]piperazine]	> 90
